Results taken from US4000151A, “Triazolyl benzophenone compounds” (priority 1975, dated 1976).

Key:
Assay type in all cases: in vivo
mice [1] = test: Pedestal test (mice staying on the pedestal for more than 1 minute); conditions: Mus musculus; Table II, route not given
Experimental: (§1) Sedative effects of 8-chloro-1-methyl-6-phenyl-4H-s-triazolo[ 4,3-a][ 1,4]benzodiazepine (a final product conforming to formula VII) are shown by the following tests in mice: […]
Pedestal test; The untreated mouse leaves the pedestal in less than a minute to climb back to the floor of the standard mouse box. Tranquilized mice will stay on the pedestal for more than 1 minute. The ED50 (oral administration) is 0.9 mg./kg.

mice [2] = test: Nicotine antagonism test; conditions: Mus musculus; Table II, route not given
Experimental: Nicotine antagonism test: Mice in a group of 6 are injected with the test compound (8-chloro-1-methyl-6-phenyl-4H-s-triazolo[ 4,3-a][ 1,4]benzodiazepine). Thirty minutes later the mice, including control (untreated) mice are injected with nicotine salicylate (2 mg./kg.). The control mice show overstimulation, i.e., (1) running convulsions followed by (2) tonic extensor fits, followed by (3) death.

mice [3] = test: Dish test (mice remaining in Petri dish for more than 3 minutes); conditions: Mus musculus; Table II, route not given
Experimental: as §1
Dish test: Mice in Petri dishes (10 cm. diameter, 5 cm. high, partially embedded in wood shavings), climb out in a very short time, when not treated. Mice remaining in the dish for more than 3 minutes indicates tranquilization. ED50 equals the dose of the test compound at which 50% of the mice remain in the dish.

mice [4] = test: Chimney test (mice back up and out of a vertical glass cylinder within 30 seconds); conditions: Mus musculus
Experimental: as §1
Chimney test: [Med. Exp. 4, 145 (1961)]: The effective intraperitoneal dosage for 50% of the mice (ED50) is 0.09 mg./kg.; the oral ED50 is 0.6 mg./kg. The test determines the ability of mice to back up and out of a vertical glass cylinder within 30 seconds. At the effective dosage, 50% of the mice failed doing it.

Row | Structure (SMILES) | ED50 (mice [1]) [mg/kg] | ED50 (mice [2]) [mg/kg] | ED50 (mice [3]) [mg/kg] | ED50 (mice [4]; Table II, route not given, read-out: ED50 Ch) [mg/kg] | ED50 (mice [4]; mice, oral, read-out: oral ED50, chimney test) [mg/kg]
1 | Cc1nncn1-c1ccc(Cl)cc1C(=O)c1ccccc1 [5-Chloro-2-(3-methyl-4H-1,2,4-triazol-4-yl)benzophenone] | 20 | 20 | 23 | 28 | 
2 | Cc1nnc2n1-c1ccc(Cl)cc1C(c1ccccc1)=NC2 [8-Chloro-1-methyl-6-phenyl-4H-s-triazolo[4,3-a][1,4]benzodiazepine] |  |  |  |  | 0.6
